Test results: patent publication US10155802B2, “Locally-active anticoagulants and anti-inflammatory agents” (priority 2011, dated 2018)
pEC50, pIC50: −log10 of the molar value.

Legend:
Type in all cases: biochemical
pooled human plasma [1] = test: Activated partial thromboplastin time (APTT) clotting assay
In short: (§1)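 Test compound diluted in HBS (20 mM HEPES, 150 mM NaCl, pH 7.4), mixed with pooled normal human plasma at 37 °C; APTT started with APTT reagent then CaCl2, PT with thromboplastin. APTT value is concentration giving 50% of maximum clotting delay (MCT50); PT IC50 is concentration prolonging clotting time by 50%.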

[2] = system: human coagulation proteome; test: Synthetic coagulation proteome assay (thrombin generation)
Protocol: This assay is carried out using an established protocol as described previously (Brummel-Ziedens 2008). Briefly, a pro-cofactor solution containing re-lipidated tissue factor (10 pM; molar ratio PCPS:TF=5000) was incubated with 4 μM PCPS in HBS (20 mM HEPES and 150 mM NaCl at pH 7.4) and 2 mM CaCl2 for 8 min at 37° C. Factor V (40 nM) and Factor VIII (1.4 nM) were then added to the mixture prior to initiation of the reaction to activate the protease zymogens in the blood coagulation cascade. The activation reaction was initiated by addition of the pro-cofactor solution to a zymogen solution containing prothrombin (2.8 μM), Factor VII (20 nM), Factor Vila (0.2 nM), FX (340 nM), Factor IX (180 nM), Factor XI (60 nM), TFPI (5 nM), antithrombin III (6.8 μM) […]
At selected time points after initiation of the reaction, 10 μL aliquots were withdrawn from the reaction mixture and quenched in 20 mM EDTA in HBS (pH 7.4) containing 0.2 mM Spectrozyme™ TH and assayed immediately for the proteolytic activity of thrombin. The hydrolysis of Spectrozyme™ TH was monitored by the change in absorbance at 405 nm using a SpectraMax™ plate reader (Molecular Devices Corp., Menlo Park, Calif., USA). Concentration of thrombin generated by the reaction was calculated from a standard curve prepared by serial dilutions of known concentrations of α-thrombin using the fibrinogen clotting assay (DiMaio 1990). Fibrinogen solution was freshly prepared by dissolving about 0.5% (w/v) fibrinogen in 50 mM Tris-HCl, 100 mM NaCl, 0.1% PEG-8000, pH 7.6 and filtering the resulting solution through a hydrophilic membrane of 0.45 μm polyvinylidene fluoride (PVDF) with low protein binding. The concentration of fibrinogen after filtration was determined by using the extinction coefficient of 15.0 for 1% fibrinogen at 280 nm. […] Thrombin-induced clotting of fibrinogen was followed at 25° C. by measuring the optical absorbance at 420 nm. The clotting time was obtained from extrapolation of the slope at the point of inflection to the zero absorbance baseline. […]

pooled human plasma [3] = test: Prothrombin time (PT, thromboplastin) clotting assay
In short: as §1

For `CC[C@H](C)[C@H](N)C(=O)N[C@@H](CCCNC(=N)N)C(=O)N[C@@H](Cc1ccccc1)C(=O)N[C@H](C(=O)N[C@@H](CC(=O)O)C(=O)NCC(=O)N[C@@H](CCC(=O)O)C(=O)N[C@@H](Cc1c[nH]c2ccccc12)C(=O)N[C@H](C(=O)N[C@@H](Cc1c[nH]c2ccccc12)C(=O)N[C@@H](CC(=O)O)C(=O)N[C@@H](CC(=O)O)C(=O)N[C@@H](C)C(=O)N[C@H](C(=O)N[C@@H](CCCCN)C(=O)N[C@H](C(=O)N[C@@H](Cc1c[nH]c2ccccc12)C(=O)N[C@H](C(=O)N[C@@H](Cc1c[nH]c2ccccc12)C(=O)N[C@H](C(=O)N[C@@H](CCC(=O)O)C(=O)NCC(=O)N[C@@H](CC(=O)O)C(=O)N[C@@H](Cc1ccccc1)C(=O)N[C@@H](CCC(=O)O)C(=O)N[C@@H](CCC(=O)O)C(=O)N[C@H](C(=O)N1CCC[C@H]1C(=O)N[C@@H](CCC(=O)O)C(=O)N[C@@H](CCC(=O)O)C(=O)N[C@@H](Cc1ccc(O)cc1)C(=O)N[C@@H](CC(C)C)C(=O)N[C@@H](CCC(N)=O)C(=O)O)[C@@H](C)CC)[C@@H](C)O)[C@@H](C)O)[C@@H](C)O)[C@@H](C)O)[C@@H](C)O)[C@@H](C)O` [MH2-wZIP4], the pEC50 (pooled human plasma [1]; 37° C., concentration for 50% of maximum delay in clotting time, read-out: MTC50 (APTT)) was 5.10, the “dose response in APTT assays” value (pooled human plasma [1]; in words) was “saturable dose response” and the “delay of thrombin burst / onset of thrombin generation” value ([2]; 37° C.) was “very little delay in the onset of thrombin generation”. For the same molecule, the “delay of onset of thrombin generation with increase of bulk temperature” value ([2]; 42° C. versus 37° C.) was “delaying effect is increased somewhat”, the “Plateau of prothrombin time dose response” value (pooled human plasma [3]; 37° C.) was “(Plateau at >900 nM)” and the pIC50 (pooled human plasma [3]; 37° C., concentration that prolongs clotting time by 50%) was 6.00. For the same molecule, the “anticoagulant effect in PT versus APTT assays” value (pooled human plasma [3]; in words) was “greatly-reduced anticoagulant potency in both the PT and APTT assays”.
